{"source": "patent US10123985B2", "about": "“Therapeutic strategies for treating mitochondrial disorders” (Whitehead Institute for Biomedical Research, priority 2015, dated 2018)", "type_in_all_cases": "cell-based", "key": {"143B cells": {"system": "143B cells", "test": "Measurement of NAD+/NADH (NAD/NADH Glo) in 143B cells with respiration inhibitors", "settings": "143B cells, ETC inhibitors plus AKB, 6 hours", "method": "NAD^+/NADH measurements were done using a modified version of manufacturer instructions of NAD/NADH Glo Assay (Promega). Cells were plated and treated as for proliferation assays and cell extracts were taken 6 hours after treatment. For extraction, cells were quickly washed 3 times in ice cold PBS, extracted in 100 μL ice cold lysis buffer (1% Dodecyltrimethylammonium bromide (DTAB) in 0.2 N NaOH diluted 1:1 with PBS), and immediately frozen at −80° C. To measure NADH, 20 μL of sample was moved to PCR tubes and incubated at 75° C. for 30 min, where the basic conditions will selectively degrade NAD^+. To measure NAD^+, 20 μL of the samples was moved to PCR tubes containing 20 μL lysis buffer and 20 μL 0.4 N HCl and incubated at 60° C. for 15 min, where acidic conditions will degrade NADH. Following incubations, samples were allowed to equilibrate to room temperature and then quenched by neutralizing with 20 μL 0.25 M Tris in 0.2 N HCl (NADH) or 20 μL 0.5 M Tris base (NAD^+). Manufacturer instructions were followed thereafter to measure NAD^+/NADH."}, "143B CytB cells": {"system": "143B CytB cells", "test": "Cell cycle distribution by propidium iodide flow cytometry", "settings": "143B CytB cells without AKB compared with AKB, 78 hours", "method": "143B CytB cells were incubated in untreated media or media containing AKB or 100 μM adenine for 78 hours before being washed with PBS, trypsinized, pelleted, and resuspended in 500 μL PBS. Cells were fixed by adding 4.5 mL 70% ethanol and incubated at 4° C. overnight. The following day cells were pelleted and resuspended in 1 mL PBS+0.1% (v/v) Triton X-100. RNase A and then propidium iodide (PI) were added to 0.2 mg/mL and 20 μg/mL, respectively. Samples were incubated at 37° C. for 15 minutes and filtered into a flow cytometry tube. DNA content was measured by flow cytometry (BD FACS Canto II) and analyzed (FACS Diva Software)."}, "[1]": {"system": "ETC-defective cybrid cells", "test": "[U-13C]-L-glutamine isotope tracing of aspartate in cybrid cells", "settings": "[U-13C]-L-glutamine 7 hours, pyruvate (1 mM)", "method": "FIG. 19. […] Cell line models of ETC dysfunction were cultured in RPMI (supplemented with uridine) with pyruvate (1 mM) or aspartate (10 mM) for 6 days. Relative cell number was determined by normalizing to the pyruvate-supplemented condition. Representative bright-field micrographs of MERRF, CYTB, and 143B ρ0 cells after 6 days in indicated conditions (right) (mean±SD, n=3, **p<0.05). […] Mass isotopomer analysis of aspartate in wild type, phenformin-treated wild type, and ETC-defective cybrid cells cultured for 7 hours with [U-^13C]-L-glutamine (middle) in the presence or absence of pyruvate (1 mM). The fraction of labeled aspartate from [U-^13C]-L-glutamine is indicated (mean±SD, for n=3, **p<0.05) (bottom). OAA, oxaloacetate. […] Immunoblot analysis of wild type, MERRF, and CYTB cybrid cells expressing sgControl and sgGOT1 (top). Raptor was used as a loading control. […] Relative cell number was determined by normalizing to sgControl expressing cell line (mean±SD, for n=3, **p<0.05). […]\nPolar metabolites were extracted using 1 ml of ice-cold 80% methanol with 10 ng/ml valine-d8 as an internal standard. […] Relative quantitation of polar metabolites was performed with XCalibur QuanBrowser 2.2 (Thermo Fisher Scientific) using a 5 ppm mass tolerance and referencing an in-house library of chemical standards."}}, "note": "“Also recorded” adds a separate entry of the source."}
{"smiles": "CCC(=O)C(=O)O", "note": "[AKB, α-ketobutyrate]", "values": [{"measurement": "Cellular NAD+/NADH ratio", "setting": "143B cells", "result": "restored NAD^+/NADH"}, {"measurement": "Cell cycle distribution (DNA content)", "setting": "143B CytB cells", "result": "do not obviously arrest at a specific stage of the cell cycle"}]}
{"smiles": "CC(=O)C(=O)O", "note": "[pyruvate]", "values": [{"measurement": "Aspartate synthesis in ETC-defective cybrid cells", "setting": "[1]", "result": "stimulated aspartate synthesis in the ETC-defective cells; also recorded: stimulates aspartate biosynthesis in cybrid cells with ETC dysfunction"}]}
